# Source: patent US11759412B2, “Personal care compositions with glutathione precursor comprising 4-substituted resorcinols and amino acids” (Conopco, Inc., priority 2016, dated 2023)
# Assays:
# Type in all cases: cell-based
# [1] = tested on: Aged Human Keratinocytes; experiment: Glutathione Assay (total glutathione, GSH-GSSG Glo, menadione challenge); settings: for synergistic increase in GSH synthesis, combination with GAP amino acids vs either alone: resorcinol/test reagent combined with GAP, + menadione
# Method: Aged Human Keratinocytes (Cascade Biologics, now ThermoFisher Scientific, Waltham, Mass.) were maintained in Epi Life® medium containing 60 uM calcium chloride and 1% Human Keratinocyte Growth Supplement (both media components from ThermoFisher Scientific) in a humidified incubator with an atmosphere containing 5% CO2 at 37° C. The medium was refreshed every 2-3 days. Subsequently, cells were trypsinized at 90% confluency and seeded at a density of 1×10^4 per well into 96-well plates with white wall and clear bottom. One or two days after seeding, cell medium was replaced with Hank's Balanced Salt Solution (HBSS), and keratinocytes were pre-treated with GAP (or 0.12-0.240 mM sodium hydroxide vehicle control, pH 7.5) alone or in combination with additional test reagents described above or L-cystine esters alone for 1-2 hours. The concentration of all amino acids constituting the GAP mixture used in this assay are designated in the data tables, and fully described in the abbreviations list below.
# After one or two hours of pre-treatment with GAP or additional test reagents, alone or in combination, keratinocytes were then challenged with 25 uM menadione (Sigma-Aldrich), a known inducer of oxidative stress. After 18-20 hours, cells were harvested and analyzed for total glutathione levels using a commercially available kit (GSH-GSSG GLo Assay, Promega), a luminescence-based system for the detection and quantification of total glutathione in cultured cells. In summary, after cell treatment, the media was removed and replaced with a cell lysis reagent for 5 minutes at 20-25° C.; note, all remaining steps were also conducted at 20-25° C. Next, a luciferase generation reagent was added to each well and incubated for 30 minutes. Following this step, a luciferin detection reagent was added to each well and plates were incubated for 15 minutes. Finally, plates were then read for luminescence in a FlexStation 3 plate reader (Molecular Devices). Total glutathione levels were calculated after interpolation of glutathione concentrations from a standard curve. Experimental conditions were typically conducted in at least triplicate determinations. Statistical significance was calculated using 1-way ANOVA. Percent protection was calculated by using the calculated glutathione levels from each experiment in the following equation: […]
# [2] = tested on: Human Keratinocytes; experiment: Reactive Oxygen Species (ROS) Assay (CellROX green, menadione); settings: for % protection (improvement vs vehicle control + menadione), ROS / Mean ROS production (% of vehicle control) / synergistic decrease in ROS production, combination with GAP amino acids vs either alone: + menadione; for synergistic decrease in ROS production, combination with GAP amino acids vs either alone: resorcinol/test reagent combined with GAP
# Method: Human Keratinocytes (Promocell, Heidelberg, Germany) were maintained in EpiLife® keratinocyte medium containing 60 uM calcium chloride and 1% Human Keratinocyte Growth Supplement (HKGS) in a humidified incubator with an atmosphere containing 5% CO2 at 37° C. The medium was refreshed every other day. Subsequently, cells were trypsinized at 90% confluency and seeded at a density of 1-2×10^4 per well into 96-well plates with black wall and clear bottom. On the second day after seeding, cell medium was replaced with Hank's Balanced Salt Solution (HBSS) with or without menadione (10-25 uM), GAP (typically at 49 uM pyroglutamic acid, 60 uM cystine, 194 uM glycine), GAP vehicle (0.2 mM NaOH, pH 7.5), above-described additional test reagents, or combinations of GAP with additional test reagents or L-cystine esters alone, and incubated for additional 18 hours. For ROS detection, CellROX green (Life Tech, Thermo Fisher Scientific, Rockford, USA) reagent was added into each well to a final concentration of 15-25 uM and incubated for additional 2-4 hours at 37° C. in a humidified incubator. The ROS fluorescence was detected using a Tecan microplate reader (Excitation/Emission=490/525). Relative ROS production was calculated with normalization based on the vehicle control treatment which was set to 100%. Where indicated, percent protection was calculated as a comparison to menadione alone treatment, using the measured relative fluorescent units in the following equation: […]
# ROS levels were evaluated together with cell viability because it is possible to get a false negative for ROS if treatment is so toxic, that at the time of assay, cells are dead (and there are no longer any detectable ROS). Decrease in ROS levels is meaningful if cells are still viable.
# [3] = tested on: Human Keratinocytes; experiment: Cell Viability Assay (CCK-8, menadione); settings: + menadione
# Method: Human Keratinocytes (Promocell, Heidelberg, Germany) were maintained in EpiLife® keratinocyte medium containing 60 uM calcium chloride and 1% Human Keratinocyte Growth Supplement (HKGS). The medium was refreshed every other day. Subsequently, cells were trypsinized at 90% confluency and seeded at a density of 2×10^4 per well into 96-well transparent tissue culture plates. On the second day after seeding, cell medium was replaced with treatments as described above in ROS assay section. After 18 hours, […] (CCK-8) reagent (Dojindo, Kumamoto, Japan) was diluted 1:10 in HBSS and incubated with cells for 4 h at 37° C. in a humidified incubator. Optical absorption at 450 nm was measured using a Tecan Safire2 plate reader. Relative viability was calculated with normalization based on the vehicle control treatment, which was set to 100%.
# Where indicated, percent protection was calculated as a comparison to menadione alone treatment, using the measured relative absorbance units in the following equation: […]
# [4] = Table 3D, 4-CHMR 10 uM + menadione
# [5] = Table 3D, 4-CHMR 20 uM + menadione
# [6] = Table 3D, 4-CHMR 50 uM + menadione
# [7] = Table 2G, PER 10 uM + menadione
# [8] = Table 2G, PER 20 uM + menadione
# [9] = Table 2G, PER 50 uM + menadione
# [10] = Table 2F, PER 20 uM where present
# [11] = Table 3C, MR 10 uM where present
# [12] = Table 1B, BR 50 uM where present, + menadione 25 uM
# [13] = Table 2B, resorcinol (BR or IPR) 10 uM + menadione
# [14] = Table 2B, resorcinol (BR or IPR) 50 uM + menadione
# [15] = Table 2B, resorcinol (BR or IPR) 100 uM + menadione
# [16] = Table 2E, BR 20 uM where present
smiles,measurement,setting,value
"Oc1ccc(CC2CCCCC2)c(O)c1 [Sample 4-CHMR, 4-(cyclohexylmethyl)resorcinol]",% Protection,[1]; [4],−4.6%
same,"Glutathione Synthesis, Mean (uM glutathione)",[1]; [4],0.07 µM
same,% Protection,[1]; [5],−6.2%
same,"Glutathione Synthesis, Mean (uM glutathione)",[1]; [5],0.026 µM
same,% Protection,[1]; [6],−1.7%
same,"Glutathione Synthesis, Mean (uM glutathione)",[1]; [6],0.147 µM
same,"synergistic increase in GSH synthesis, combination with GAP amino acids vs either alone",[1],did not result
"CC(c1ccccc1)c1ccc(O)cc1O (stereo not shown) [PER, 4-(1-phenylethyl)resorcinol]",% Protection (improvement vs vehicle control + menadione),[1]; [7],−2%
same,"Glutathione Synthesis, Mean (uM glutathione)",[1]; [7],0.12 µM
same,% Protection (improvement vs vehicle control + menadione),[1]; [8],3%
same,"Glutathione Synthesis, Mean (uM glutathione)",[1]; [8],0.25 µM
same,% Protection (improvement vs vehicle control + menadione),[1]; [9],12%
same,"Glutathione Synthesis, Mean (uM glutathione)",[1]; [9],0.50 µM
same,"synergistic increase in GSH synthesis, combination with GAP amino acids vs either alone",[1],not observed
same,"% protection (improvement vs vehicle control + menadione), ROS",[2]; [10],−6.74%
same,Mean ROS production (% of vehicle control),[2]; [10],321.5%
same,"synergistic decrease in ROS production, combination with GAP amino acids vs either alone",[2],synergistic decrease
same,"% Protection (improvement vs vehicle control + menadione), cell viability",[3]; [10],1.09%
same,Cell viability (% of control),[3]; [10],62.3%
"Cc1ccc(O)cc1O [MR, 4-methylresorcinol]",Mean ROS production (% of vehicle control),[2]; [11],233.5^1%
same,"synergistic decrease in ROS production, combination with GAP amino acids vs either alone",[2],did not result
same,Cell viability (% of vehicle control),[3]; [11],45.3%
"CCCCc1ccc(O)cc1O [BR, 4-butylresorcinol]",% Protection (improvement vs. vehicle control + menadione),[1]; [12],−1^1%
same,"Glutathione Synthesis, Mean (uM glutathione)",[1]; [12],0.06^1 uM
same,% Protection (improvement vs. vehicle control + menadione),[1]; [13],5%
same,"Glutathione Synthesis, Mean (uM glutathione)",[1]; [13],0.10 µM
same,% Protection (improvement vs. vehicle control + menadione),[1]; [14],3%
same,"Glutathione Synthesis, Mean (uM glutathione)",[1]; [14],0.07 µM
same,% Protection (improvement vs. vehicle control + menadione),[1]; [15],6%
same,"Glutathione Synthesis, Mean (uM glutathione)",[1]; [15],0.13 µM
same,"synergistic increase in GSH synthesis, combination with GAP amino acids vs either alone",[1],synergistic increase
same,"% protection (improvement vs vehicle control + menadione), ROS",[2]; [16],0.95%
same,Mean ROS production (% of vehicle control),[2]; [16],220.7%
same,"synergistic decrease in ROS production, combination with GAP amino acids vs either alone",[2],synergistic decrease
same,"% Protection (improvement vs vehicle control + menadione), cell viability",[3]; [16],11.75^3%
same,Cell viability (% of control),[3]; [16],74.1^3%
"CCOC(=O)[C@@H](N)CSSC[C@H](N)C(=O)OCC.Cl.Cl [DEC, Diethyl L-cystinate dihydrochloride]","% Protection (improvement vs. vehicle control + menadione), ROS","[2]; Table 1D, DEC 20 uM + menadione","38.0^1,2%"
